These are literature values, as cited in patent US20050202101A1, “Method and composition for preventing or reducing the symptoms of insulin resistance syndrome” (Interhealth Nutraceuticals Incorporated, priority 2001, published 2005).

In this series the test system is obese women. Particulars: with exercise.

Regarding chromium picolinate, the body weight change entry is reported as “significant weight gain”.
